Tests used:
[1] = molecular target: T1, Proteinase-activated receptor 1 (Homo sapiens, UniProt P25116); assay: Antagonistic activity against thrombin receptor, inhibition of secreted radiolabeled [3H]5-HT from washed human platelets stimulated by 3 uM thrombin receptor activating peptide (TRAP); type: functional
T1 sequence (P25116 whole entry): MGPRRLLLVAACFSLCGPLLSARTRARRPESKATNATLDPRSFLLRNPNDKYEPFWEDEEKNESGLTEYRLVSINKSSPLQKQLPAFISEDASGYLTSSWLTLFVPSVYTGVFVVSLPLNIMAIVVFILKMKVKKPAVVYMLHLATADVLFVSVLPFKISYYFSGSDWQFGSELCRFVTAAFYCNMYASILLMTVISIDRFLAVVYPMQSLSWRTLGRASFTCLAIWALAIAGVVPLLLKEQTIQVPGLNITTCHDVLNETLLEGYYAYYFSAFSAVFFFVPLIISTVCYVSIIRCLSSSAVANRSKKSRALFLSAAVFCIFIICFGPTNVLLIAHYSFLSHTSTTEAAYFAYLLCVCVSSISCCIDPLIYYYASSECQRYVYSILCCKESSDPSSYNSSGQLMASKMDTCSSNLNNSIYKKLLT

[2] = molecular target: T1, Proteinase-activated receptor 1; assay: Inhibition of secretion of radiolabeled serotonin from washed human platelets stimulated by 1 nM thrombin; type: functional
[3] = molecular target: T1, Proteinase-activated receptor 1; assay: Displacement of [3H]SFFLRR-NH2 from human thrombin receptor PAR-1
[4] = molecular target: T2, Proteinase-activated receptor 1 (Homo sapiens) (UniProt P25116); assay: Inhibition of secretion of radiolabeled concentration; type: functional; settings: concentration not given here
T2 sequence (whole entry): T1 sequence (P25116 whole entry)

Prothrombin = Prothrombin (Homo sapiens, UniProt P00734); assay: Compound was tested for thrombin catalytic activity; no inhibition was observed

SMILES	IC50 [1]	IC50 [2]	IC50 [3]	inhibition [4]	Ki (Prothrombin)
Fc1ccc(-c2cc(N(CCCN3CCCCCC3)Cc3ccc4c(c3)OCO4)on2)cc1	1310 nM	> 10000 nM			
Ic1ccc(-c2cc(N(CCCN3CCCCCC3)Cc3ccc4c(c3)OCO4)on2)cc1	90 nM	880 nM	470 nM		
c1ccc(-c2cc(N(CCCN3CCCCC3)Cc3cccc4ccccc34)on2)cc1	500 nM				
c1ccc(-c2cc(N(CCCN3CCCCC3)Cc3ccc4ccccc4c3)on2)cc1	2000 nM				
COc1ccc(-c2cc(N(CCCN3CCCCCC3)Cc3ccc4c(c3)OCO4)on2)cc1	130 nM		250 nM	60%	
c1ccc(-c2cc(N(CCCCN3CCCCCC3)Cc3cccc4ccccc34)on2)cc1	5000 nM				
Cc1ccccc1-c1cc(N(CCCN2CCCCCC2)Cc2ccc3c(c2)OCO3)on1	3220 nM				
Clc1cccc(CN(CCCN2CCCCC2)c2cc(-c3ccccc3)no2)c1	1000 nM				
COc1ccc(-c2cc(N(CCCN3CCCCCC3)Cc3ccc4c(c3)OCO4)on2)cc1OC	400 nM	4670 nM	1200 nM		
COc1cccc(CN(CCCN2CCCCCC2)c2cc(-c3ccccc3)no2)c1	500 nM				
Clc1ccc(-c2cc(N(CCCN3CCCCCC3)Cc3ccc4c(c3)OCO4)on2)cc1	1240 nM	4250 nM	990 nM		
COc1ccccc1-c1cc(N(CCCN2CCCCCC2)Cc2ccc3c(c2)OCO3)on1	2220 nM		2210 nM		
Clc1ccccc1-c1cc(N(CCCN2CCCCCC2)Cc2ccc3c(c2)OCO3)on1	2990 nM				
Clc1cccc(-c2cc(N(CCCN3CCCCCC3)Cc3ccc4c(c3)OCO4)on2)c1	270 nM	910 nM	1160 nM		
Cc1cccc(-c2cc(N(CCCN3CCCCCC3)Cc3ccc4c(c3)OCO4)on2)c1	120 nM		890 nM	60%	
c1ccc(-c2cc(N(CCCN3CCCCC3)Cc3ccc4c(c3)OCO4)on2)cc1	600 nM				
N#Cc1cccc(-c2cc(N(CCCN3CCCCCC3)Cc3ccc4c(c3)OCO4)on2)c1	350 nM	1970 nM	600 nM		
CCCCN(CCCN1CCCCC1)c1cc(-c2ccccc2)no1	> 40000 nM				
c1ccc(-c2cc(N(CCCN3CCCCCC3)Cc3cccc4ccccc34)on2)cc1	360 nM				
Cc1ccc(-c2cc(N(CCCN3CCCCCC3)Cc3ccc4c(c3)OCO4)on2)cc1	140 nM	3200 nM	290 nM		
CSc1ccc(-c2cc(N(CCCN3CCCCCC3)Cc3ccc4c(c3)OCO4)on2)cc1	430 nM	> 4000 nM			

SMILES	IC50 [1]	IC50 [2]	IC50 [3]	inhibition [4]	Ki (Prothrombin)
c1ccc(-c2cc(N(CCN3CCCCCC3)Cc3cccc4ccccc34)on2)cc1	5000 nM				
COc1cccc(CN(CCCN2CCC2)c2cc(-c3ccccc3)no2)c1	> 10000 nM				
c1ccc(-c2ccc(-c3cc(N(CCCN4CCCCCC4)Cc4ccc5c(c4)OCO5)on3)cc2)cc1	4440 nM				
Fc1cccc(-c2cc(N(CCCN3CCCCCC3)Cc3ccc4c(c3)OCO4)on2)c1	140 nM	1180 nM	770 nM		
COc1cccc(CN(CCCC2CCCCC2)c2cc(-c3ccccc3)no2)c1	> 10000 nM				
COc1cccc(CN(CCCN2CCCCC2)c2cc(-c3ccccc3)no2)c1	1600 nM				
C[S+]([O-])c1ccc(-c2cc(N(CCCN3CCCCCC3)Cc3ccc4c(c3)OCO4)on2)cc1 (centres undefined)	3700 nM				
Fc1ccc(-c2cc(N(CCCN3CCCCCC3)Cc3ccc4c(c3)OCO4)on2)cc1F	500 nM	2400 nM	2140 nM		
c1ccc(-c2cc(N(CCCN3CCCCC3)CC3CCCCC3)on2)cc1	> 10000 nM				
COc1cccc(-c2cc(N(CCCN3CCCCCC3)Cc3ccc4c(c3)OCO4)on2)c1	130 nM	2240 nM	260 nM		
COc1cc(OC)cc(-c2cc(N(CCCN3CCCCCC3)Cc3ccc4c(c3)OCO4)on2)c1	130 nM	1200 nM	520 nM		
COc1cccc(CN(CCCN2CCCCCCC2)c2cc(-c3ccccc3)no2)c1	> 10000 nM				
COc1ccc(-c2cc(N(CCCN3CCCCCC3)Cc3ccc4c(c3)OCO4)on2)cc1F	70 nM	2140 nM			
O=[N+]([O-])c1cccc(-c2cc(N(CCCN3CCCCCC3)Cc3ccc4c(c3)OCO4)[o+][n-]2)c1	830 nM	> 10000 nM	1020 nM		
CC(C)N(CC(O)c1ccc(C#N)cc1)C(=O)Nc1ccccc1 (centres undefined)	12000 nM				
COc1cccc(CN(CCCN2CCCC2)c2cc(-c3ccccc3)no2)c1	3300 nM				
c1ccc(CN(CCCN2CCCCC2)c2cc(-c3ccccc3)no2)cc1	9000 nM				
CS(=O)(=O)c1ccc(-c2cc(N(CCCN3CCCCCC3)Cc3ccc4c(c3)OCO4)on2)cc1	3200 nM				
Fc1cc(F)cc(-c2cc(N(CCCN3CCCCCC3)Cc3ccc4c(c3)OCO4)on2)c1	90 nM	510 nM	150 nM		> 10000 nM
c1ccc(-c2cccc(-c3cc(N(CCCN4CCCCCC4)Cc4ccc5c(c4)OCO5)on3)c2)cc1	6420 nM				

Source: ChEMBL document CHEMBL1136056, “Discovery of a nonpeptidic small molecule antagonist of the human platelet thrombin receptor (PAR-1)” (Bioorg Med Chem Lett, 2002)
